Data on 3 molecules can be found in patent US5840747A, “Calcium channel antagonists” (Eli Lilly and Company, priority 1995, dated 1998).

The structures appear in SMILES notation. “Also recorded” adds a separate entry of the source.

Common to all, as to type: cell-based
Test [1] concerns rat aorta. Briefly: Endothelium integrity: relaxation to acetylcholine after contraction with norepinephrine. Conditions: acetylcholine 10^-6 M after contraction with norepinephrine 10^-7 M, tissues with intact endothelium, n-11. From the text: (§1) Male Wistar rats (250-350 g; Charles River Laboratories, Portage, Mich.) were sacrificed by cervical dislocation. The aorta was removed and cleaned of extraneous tissue and cut into ring segments, each approximately 4-5 mm long. In some tissues, endothelium was removed by rotating the ring segment around the tip of a forceps 10 times. Lack of tissue relaxation to acetylcholine (10^-6 M) after contraction with norepinephrine (10^-7 M) was used as evidence for denuded endothelium. Tissues with an intact endothelium relaxed to acetylcholine with 88.5±1.6% (n-11) relaxation.

For test [2], the target named is T1, calcium channels in vascular tissue (Rattus norvegicus, UniProt P22002).
T1 construct: BayK 8644-induced contraction
T1 sequence (P22002 whole entry): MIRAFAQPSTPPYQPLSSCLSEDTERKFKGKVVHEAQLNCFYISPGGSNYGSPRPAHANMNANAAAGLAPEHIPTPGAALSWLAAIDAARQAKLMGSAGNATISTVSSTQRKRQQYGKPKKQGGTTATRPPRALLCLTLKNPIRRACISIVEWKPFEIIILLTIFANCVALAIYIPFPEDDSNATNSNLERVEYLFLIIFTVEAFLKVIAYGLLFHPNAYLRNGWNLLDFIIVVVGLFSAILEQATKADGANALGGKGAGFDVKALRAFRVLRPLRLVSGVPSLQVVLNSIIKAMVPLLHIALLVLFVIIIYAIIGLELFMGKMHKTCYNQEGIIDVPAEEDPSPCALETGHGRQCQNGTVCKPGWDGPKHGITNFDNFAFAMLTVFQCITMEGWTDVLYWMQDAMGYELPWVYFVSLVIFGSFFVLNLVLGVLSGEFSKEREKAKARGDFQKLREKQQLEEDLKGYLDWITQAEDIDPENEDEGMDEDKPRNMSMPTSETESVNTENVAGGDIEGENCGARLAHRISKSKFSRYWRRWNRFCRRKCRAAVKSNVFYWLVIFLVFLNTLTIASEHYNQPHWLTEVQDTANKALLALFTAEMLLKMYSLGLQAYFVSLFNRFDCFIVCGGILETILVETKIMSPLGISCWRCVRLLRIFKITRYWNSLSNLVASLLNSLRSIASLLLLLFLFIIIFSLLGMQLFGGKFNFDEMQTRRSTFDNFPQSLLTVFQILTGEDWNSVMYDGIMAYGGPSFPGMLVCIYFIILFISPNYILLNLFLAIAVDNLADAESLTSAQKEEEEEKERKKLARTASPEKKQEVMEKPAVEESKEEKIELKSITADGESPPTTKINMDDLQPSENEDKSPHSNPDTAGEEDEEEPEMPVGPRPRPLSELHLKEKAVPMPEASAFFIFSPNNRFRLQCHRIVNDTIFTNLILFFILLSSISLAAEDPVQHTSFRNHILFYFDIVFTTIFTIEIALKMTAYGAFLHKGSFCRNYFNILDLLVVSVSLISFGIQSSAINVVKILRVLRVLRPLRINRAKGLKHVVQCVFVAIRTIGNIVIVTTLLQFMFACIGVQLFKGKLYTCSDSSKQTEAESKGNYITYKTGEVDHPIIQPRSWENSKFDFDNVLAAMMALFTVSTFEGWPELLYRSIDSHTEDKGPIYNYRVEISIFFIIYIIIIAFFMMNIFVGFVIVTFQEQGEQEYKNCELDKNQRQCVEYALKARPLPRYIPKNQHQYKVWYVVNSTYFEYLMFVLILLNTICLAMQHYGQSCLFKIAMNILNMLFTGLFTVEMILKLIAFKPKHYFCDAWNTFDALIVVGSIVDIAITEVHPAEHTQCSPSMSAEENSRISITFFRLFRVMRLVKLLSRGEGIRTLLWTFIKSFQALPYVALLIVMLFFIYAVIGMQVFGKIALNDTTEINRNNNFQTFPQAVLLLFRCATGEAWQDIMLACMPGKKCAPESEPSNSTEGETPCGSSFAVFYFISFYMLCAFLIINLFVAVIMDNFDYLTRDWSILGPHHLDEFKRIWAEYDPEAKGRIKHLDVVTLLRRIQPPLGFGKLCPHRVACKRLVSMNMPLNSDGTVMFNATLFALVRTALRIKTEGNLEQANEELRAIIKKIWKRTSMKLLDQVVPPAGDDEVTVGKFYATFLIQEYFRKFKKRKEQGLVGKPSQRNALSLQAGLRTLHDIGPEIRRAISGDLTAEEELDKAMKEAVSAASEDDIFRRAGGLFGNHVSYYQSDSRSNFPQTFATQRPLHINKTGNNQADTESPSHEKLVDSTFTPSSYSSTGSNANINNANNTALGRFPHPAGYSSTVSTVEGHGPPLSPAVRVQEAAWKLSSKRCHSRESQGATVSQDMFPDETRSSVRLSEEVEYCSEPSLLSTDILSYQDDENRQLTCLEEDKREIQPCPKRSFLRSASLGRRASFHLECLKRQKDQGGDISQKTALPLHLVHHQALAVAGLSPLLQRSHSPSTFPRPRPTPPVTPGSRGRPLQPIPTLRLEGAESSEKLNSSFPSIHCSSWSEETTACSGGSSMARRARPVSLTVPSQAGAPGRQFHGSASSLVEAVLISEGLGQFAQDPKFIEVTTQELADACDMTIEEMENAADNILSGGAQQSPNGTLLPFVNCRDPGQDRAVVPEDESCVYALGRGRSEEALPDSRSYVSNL
In words: Contractile response of rat aorta to the calcium agonist BayK 8644. Conditions: for inhibition of the contraction to BayK 8644: absence of an intact endothelium, 10 mM KCl prior to BayK 8644 (FIGS. 7 and 8).
Excerpt: as §1
Ring segments were placed between two stainless steel hooks and mounted in isolated organ baths containing 10 ml of modified Krebs' bicarbonate buffer of the following composition (mM): NaCl, 118.2; KCl, 4.6' CaCl2.2H2 O, 1.6; KH2 PO4, 1.2; MgSO4, 1.2; glucose, 10; and NaHCO3, 24.8. Organ bath solutions were aerated with 95% O2 /5% CO2 and maintained at 37° C. Tissues were placed under an optimal force of 4 grams and equilibrated for one hour with washes every 15 minutes. Changes in force were recorded and analyzed by a Biopac MP100 (World Precision Instruments, Sarasota, Fla.) data acquisition system via Sensotec (model MBL 5514-02) transducers (Sensotec Inc. Columbus, Ohio).
All tissues were initially challenged with KCl (67 mM) to establish viability. Concentration-response curves were generated in a cumulative fashion and are reported as a percentage of an initial KCl contraction (67 mM) produced in each tissue. Vehicle, β-estradiol, 14 or 16 were added to the tissues 60 minutes prior to initiating the concentration-response curves to agonists. In studies with BayK 8644, tissues were exposed to 10 mM KCl prior to initiating the concentration-response curves for BayK 8644. Only one agonist concentration-response curve was generated in each tissue. All results are expressed as mean±SE where n represents the number of rings examined. […]

Test [3] concerns rat aorta. In words: Contractile responses of rat aortic rings to norepinephrine, serotonin and U46619 (isolated organ bath). Conditions: for inhibitory effect on contractile responses to norepinephrine, serotonin, and U46619: summary in discussion; for dependence of the inhibition of contractile responses on the endothelium: rat aortic rings with versus without intact endothelium. From the text:
Male Wistar rats (250-350 g; Charles River Laboratories, Portage, Mich.) were sacrificed by cervical dislocation. The aorta was removed and cleaned of extraneous tissue and cut into ring segments, each approximately 4-5 mm long. In some tissues, endothelium was removed by rotating the ring segment around the tip of a forceps 10 times. Lack of tissue relaxation to acetylcholine (10^-6 M) after contraction with norepinephrine (10^-7 M) was used as evidence for denuded endothelium. […] Tissues were placed under an optimal force of 4 grams and equilibrated for one hour with washes every 15 minutes. […] All tissues were initially challenged with KCl (67 mM) to establish viability. Concentration-response curves were generated in a cumulative fashion and are reported as a percentage of an initial KCl contraction (67 mM) produced in each tissue. Vehicle, β-estradiol, 14 or 16 were added to the tissues 60 minutes prior to initiating the concentration-response curves to agonists. […] Only one agonist concentration-response curve was generated in each tissue. All results are expressed as mean±SE where n represents the number of rings examined.

[4] abbreviates: 10^-6 and 10^-5 M, rat aorta with and without intact endothelium, added 60 minutes prior to agonist.

`CC(=O)OCC[N+](C)(C)C` [acetylcholine] had a percent relaxation to acetylcholine at 1 µM in the test with rat aorta [1] of 88.5 ± 1.6%.
Regarding `O=C(c1ccc(OCCN2CCCC2)cc1)c1c(-c2ccc(O)cc2)sc2cc(O)ccc12` [Compound 16, 6-hydroxy-2-(4-hydroxyphenyl)-3-[4-(2-pyrrolidinoethoxy)benzoyl]benzo[b]thiophene], in test [2], the “inhibition of the contraction to BayK 8644” value is on record as “inhibition of the contraction to BayK 8644 occurred”. Further, the “relative potency as calcium channel antagonist” value in test [2] (comparison between substances) is given as “considerably more potent as a calcium channel antagonist than 14; also recorded: more potent calcium channel antagonist in vascular tissue than estrogen”. Further, in the test on rat aorta [3] (setting [4]), the “inhibition of contractile response to U46619” value is recorded as “potently inhibited”, the “inhibition of contractile response to norepinephrine” value was “potently inhibited” and the “inhibition of contractile response to serotonin” value was “potently inhibited”. For the same molecule, in the test on rat aorta [3] (rat aorta), the “potency in inhibiting contraction to serotonin relative to norepinephrine or U46619” value is recorded as “more potent in inhibiting the contractile response to serotonin relative to norepinephrine or U46619”; the “inhibitory effect on contractile responses to norepinephrine, serotonin, and U46619” value is on record as “marked inhibitory effect”. Also, the “dependence of the inhibition of contractile responses on the endothelium” value with rat aorta [3] is reported as “appeared independent of the endothelium”.
Consider `O=C(c1ccc(OCCN2CCCCC2)cc1)c1c(-c2ccc(O)cc2)sc2cc(O)ccc12` [Compound 14, 6-hydroxy-2-(4-hydroxyphenyl)-3-[4-(2-piperidinoethoxy)benzoyl]benzo[b]thiophene], for which the “inhibition of the contraction to BayK 8644” value in test [2] is listed as “inhibition of the contraction to BayK 8644 occurred”. The “inhibition of contractile responses to serotonin” value with rat aorta [3] (rat aorta with and without intact endothelium (FIG. 4), concentration not given) is given as “inhibited”. The “inhibition of serotonin response compared with norepinephrine response” value in the test with rat aorta [3] (rat aorta with and without intact endothelium (FIGS. 4 and 5)) is “greater than with norepinephrine”. Besides, the “inhibitory effect on contractile responses to norepinephrine, serotonin, and U46619” value in the test on rat aorta [3] (rat aorta) is “marked inhibitory effect”. Besides, the “dependence of the inhibition of contractile responses on the endothelium” value in the test with rat aorta [3] is “independent of an intact endothelium”.
